Legend:
linken Herzvorhofes = assay: Functional refractory period of the isolated left atrium, paired electrical stimulation (antiarrhythmic effect); design: species or system Meerschweinchen; conditions: 0.3 h, concentration prolonging the functional refractory period to 125 % 18 min after application, guinea pig, read-out: Effektive Konzentration zur Erreichung von FRP 125 %
Text: Der Nachweis der antiarrhythmischen Wirkung der Wirksubstanzen erfolgte experimentell durch Bestimmung der funktionellen Refraktärzeit des linken Herzvorhofes von weiblichen Albino Pirbright-white Meerschweinchen der Gewichtsklasse 300 bis 400 g mit Hilfe der gepaarten elektrischen Stimulation in Anlehnung an die Methode von Govier (W.C. Govier, J. Pharmacol. Exp. Ther. 148 (1) (1965), 100 bis 105). In der nachfolgenden Tabelle 3 ist als FRP 125 % diejenige Konzentration in µmol/l angegeben, bei der es 18 min nach Substanzapplikation zu einer Verlängerung der funktionellen Refraktärzeit auf 125 % kommt.

[1] = system: spontan schlagenden, isolierten rechten Vorhöfen; assay: Heart rate of spontaneously beating isolated right atria; design: species or system Meerschweinchen; conditions: 20 min, concentration lowering the rate to 75 % of the initial value 20 min after application, guinea pig, read-out: Effektive Konzentration zur Erreichung von FRQ 75 %
Method: Der direkte Einfluß der Wirksubstanz auf die Herzfrequenz (FRQ) wurde an spontan schlagenden, isolierten rechten Vorhöfen von weiblichen Albino Pirbright-white Meerschweinchen der Gewichtsklasse von 300 bis 400 g geprüft. In Tabelle 3 ist als FRQ 75 % diejenige Konzentration in µmol/l angegeben, bei der es 20 min nach der Substanzgabe zu einer Abnahme der Frequenz auf 75 % des Ausgangwertes kommt. Tabelle 3

Mäusen = assay: Determination of the minimal toxic dose in mice; type: in vivo
Method: Männlichen Mäusen von 20-25 g Gewicht werden p.o. Maximaldosen von 300 mg/kg der Testsubstanz verabreicht. Die Tiere werden 3 Stunden lang sorgfältig auf Toxizitätssymptome beobachtet. über einen Zeitraum von 24 Stunden nach der Applikation werden zusätzlich alle Symptome und Todesfälle registriert. Begleitsymptome werden ebenfalls beobachtet und registriert. Wenn Tod oder starke toxische Symptome beobachtet werden, werden weiteren Mäusen zunehmend geringere Dosen verabreicht, bis keine toxischen Symptome mehr auftreten. Die niedrigste Dosis, welche Tod oder starke toxische Symptome hervorruft, wird als minimale toxische Dosis in der nachfolgenden Tabelle 2 angegeben. Tabelle 2

narkotisierten Ratten = assay: Myocardial oxygen consumption (double product, method of Neill) in anaesthetised rats; type: in vivo; conditions: used as dihydrochloride; for DP: double product (systolic pressure x heart rate); for FRQ: heart rate; for P₅: systolic blood pressure
Text: Die Wirkung der Substanzen auf Blutdruck und Herzfrequenz bei i.v.-Dauerinfusion in narkotisierten Ratten wird nach der Methode von Buschmann et al. (J. Cardiovascular Pharmacol. 2 777-781 (1980)) bestimmt.
Männliche Wistar-Ratten (330-370 g Körpergewicht) werden durch i.p.-Applikation von 1,25 g/kg Urethan narkotisiert und tracheotomiert. Nach einer Äquilibrierungsphase von 10 Minuten wird mit den Messungen begonnen. In einer Vorlaufphase von 5 Minuten werden die Ausgangswerte gemessen. Anschließend werden die Prüfsubstanzen gelöst in isotonischer Natriumschloridlösung (gegebenenfalls mit Zusatz eines Lösungsvermittlers) als Dauerinfusion i.v. appliziert, beginnend mit einer Dosis vom 0,01 µmol/kg/min. Die Dosis wird alle 10 Minuten ohne Erhöhung des Infusionsvolumens auf das 10-fache gesteigert. Eine Kontrollgruppe erhält nur wirkstofffreie Lösung appliziert.
In dem gleichen Versuchsmodell wurde auch der Einfluß der Wirksubstanzen auf den myokardialen Sauerstoffverbrauch an narkotisierten Ratten untersucht und anhand der Methode von Neill (Neill, W.Z., H.H. Levine, R.J. Wagman, R. Gorlin, Circulation Research 12 (1963), 163) berechnet. Dazu wird das Produkt aus systolischem Blutdruck und Herzfrequenz (= Doppelprodukt mm Hg x min⁻¹ x 0,01) berechnet. Wie aus der nachstehenden Tabelle 1A ersichtlich ist, reduzieren die Wirksubstanzen dieses Doppelprodukt und führen damit zu einer Sauerstoffeinsparung am Herzen. Tabelle 1A

[2] = mouse, in vivo, po, 300 mg/kg, 1440 min
[3] = anaesthetised rats, 6,6 µmol/kg i.v.
[4] = anaesthetised rats, 2,6 µmol/kg i.v.

COc1ccccc1CC1C2CC(CN3CCCCC23)C2CCCCN21 (centres unmarked) [Beispiel 501]
EC (FRP 125%) (linken Herzvorhofes): 3.71 µM
EC (FRQ 75%) [1]: 4.69 µM
Minimale toxische Dosis (Mäusen; [2]): 300 mg/kg

COc1cccc(CC2C3CC(CN4CCCCC34)C3CCCCN32)c1 (centres unmarked) [Beispiel 502, 17-(3-Methoxybenzyl)-spartein]
Änderung DP (narkotisierten Ratten; change of double product versus pre-dose values, 6,6 µmol/kg i.v.): -29 Prozent
DP (narkotisierten Ratten; [3]): 312 mm Hg/ min x 100
FRQ (narkotisierten Ratten; [3]): 254 min⁻¹
P₅ (narkotisierten Ratten; [3]): 124 mm Hg
EC (FRP 125%) (linken Herzvorhofes): 6.24 µM
EC (FRQ 75%) [1]: 2.06 µM
Minimale toxische Dosis (Mäusen; [2]): 300 mg/kg

COc1cccc(CC2C3CC(CN4CCCCC34)C3CCCCN32)c1OC (centres unmarked) [Beispiel 6, 17-(2,3-Dimethoxybenzyl)-spartein]
EC (FRP 125%) (linken Herzvorhofes): 3.39 µM
EC (FRQ 75%) [1]: 4.85 µM
Minimale toxische Dosis (Mäusen; [2]): >300 mg/kg

Fc1ccc(CC2C3CC(CN4CCCCC34)C3CCCCN32)cc1 (centres unmarked) [Beispiel 511]
EC (FRP 125%) (linken Herzvorhofes): 2.47 µM
EC (FRQ 75%) [1]: 5.12 µM
Minimale toxische Dosis (Mäusen; [2]): >300 mg/kg

c1ccc(CC2C3CC(CN4CCCCC34)C3CCCCN32)cc1 (centres unmarked) [Beispiel 500, 17-Benzylspartein]
EC (FRP 125%) (linken Herzvorhofes): 3.52 µM
EC (FRQ 75%) [1]: 1.46 µM
Minimale toxische Dosis (Mäusen; p.o., male mice, maximal dose 300 mg/kg, observed 24 h, lowest dose causing death or strong toxic symptoms): >300 mg/kg

Cc1ccc(CC2C3CC(CN4CCCCC34)C3CCCCN32)cc1 (centres unmarked) [Beispiel 519]
EC (FRP 125%) (linken Herzvorhofes): 3.24 µM
EC (FRQ 75%) [1]: 1.9 µM
Minimale toxische Dosis (Mäusen; [2]): 300 mg/kg

Cc1cccc(CC2C3CC(CN4CCCCC34)C3CCCCN32)c1 (centres unmarked) [Beispiel 518]
EC (FRP 125%) (linken Herzvorhofes): 2.58 µM
EC (FRQ 75%) [1]: 3.13 µM
Minimale toxische Dosis (Mäusen; [2]): >300 mg/kg

Clc1ccccc1CC1C2CC(CN3CCCCC23)C2CCCCN21 (centres unmarked) [Beispiel 505]
Änderung DP (narkotisierten Ratten; change of double product versus pre-dose values, 2,6 µmol/kg i.v.): -26 Prozent
DP (narkotisierten Ratten; [4]): 376 mm Hg/ min x 100
FRQ (narkotisierten Ratten; [4]): 306 min⁻¹
P₅ (narkotisierten Ratten; [4]): 121 mm Hg
EC (FRP 125%) (linken Herzvorhofes): 2.17 µM
EC (FRQ 75%) [1]: 0.99 µM
Minimale toxische Dosis (Mäusen; [2]): 300 mg/kg

Cc1cccc(CC2C3CC(CN4CCCCC34)C3CCCCN32)c1F (centres unmarked) [Beispiel 523]
EC (FRP 125%) (linken Herzvorhofes): 2.69 µM
EC (FRQ 75%) [1]: 0.95 µM
Minimale toxische Dosis (Mäusen; [2]): 300 mg/kg

Fc1ccccc1CC1C2CC(CN3CCCCC23)C2CCCCN21 (centres unmarked) [Beispiel 509]
EC (FRP 125%) (linken Herzvorhofes): 2.83 µM
EC (FRQ 75%) [1]: 4.09 µM
Minimale toxische Dosis (Mäusen; [2]): >300 mg/kg
